The numbers were not newly measured in patent publication US6515019B2, “Methods of providing symptomatic and prophylactic treatment for medical and neurological conditions” (priority 1996, dated 2003), which cites them from elsewhere.

The conditions of data set [1]: patients on felbamate monotherapy (Faught E., Neurology 43:688-692, 1993).
For data set [2] the following is noted: add-on therapy in partial epilepsy in children (Carmant J., Pediatr 125:481-486, 1994).
The subject of data set [3] is neuronal cell death. The note with it: administered post-hoc; animal models of ischemia (Wasterlain 1993; Shuaib 1996; Wasterlain 1996).

On to `NC(=O)OCC(COC(N)=O)c1ccccc1` [Felbamate, 2-phenyl-1,3-propanediol dicarbamate], for which the Weight loss in data set [1] is reported as 4-5%. Also, the weight loss course entry in data set [2] was “transient and returned to normal after twenty weeks”. Besides, the “prevention of neuronal cell death” value in data set [3] is reported as “effective in preventing neuronal cell death”.
